# Measurements published in paper PMC7855930, “Nontoxic Cobalt(III) Schiff Base Complexes with Broad‐Spectrum Antifungal Activity” (Chemistry (Weinheim an Der Bergstrasse, Germany), 2020).
# Like-named read-outs stand apart in the source and are kept apart here.
# Experiments:
# [1] = tested on: C. neoformans ATCC 208821; assay: Antifungal MIC assay (broth microdilution in YNB); type: cell-based, Cryptococcus neoformans
# From the text: (§1) Yeast strains: Candida albicans (ATCC 90028, NCCLS 11), Cryptococcus neoformans (ATCC 208821, H99 type strain), Candida tropicalis (ATCC 750, type strain), Candida glabrata (ATCC 90030, NCCLS 84) and Cryptococcus deuterogattii (ATCC 32609, type strain) were obtained from the American Type Culture Collection (ATCC). Cryptococcus deuterogattii (CBS 7750), Candida auris (CBS 10913) and Candida auris (CBS 12373) were obtained from the CBS‐KNAW culture collection. The strains were maintained on glycerol/YPD (yeast extract‐peptone dextrose) broth (20:80 v/v) at −80 °C.
# (§2) Antifungal minimum inhibitory concentration (MIC) assay: The cobalt complexes and antifungal control compounds were serially diluted in 50 μL of Yeast Nitrogen Broth (YNB; BD, Cat No. 233520 supplemented with 2 % glucose and 10 mM ammonium sulfate) two‐fold across the wells of non‐binding surface (NBS) 96‐well plates (Corning; Cat. No. 3641). Plates were set up in quadruplicate for each strain tested, and two biological replicates were conducted on separate assay days.
# (§3) Yeast strains were cultured from glycerol onto YPD (Becton Dickinson 242720) agar at 30 °C for 72 h. For each strain, a minimum of five single colonies were taken from the agar plate and dissolved in sterile water and adjusted to form a yeast suspension of 1×10^6 to 5×10^6 CFU mL^−1 (as determined by OD530). The suspension was subsequently diluted into YNB media, and added to each well of the compound containing plates, giving a final cell density of 2.5×10^3 CFU mL^−1 and a total volume of 100 μL. Plates were covered and incubated at 35 °C for 36 h without shaking.
# (§4) Growth inhibition of all strains was determined visually where the MIC was recorded as the lowest compound concentration with no visible growth. Fluconazole (Sigma F8929), ketoconazole (Sigma K1003) and micafungin (Sigma SML2288) were used as internal positive inhibitor controls for every strain tested.
# human red blood cells = assay: Haemolysis assay; type: cell-based; conditions: 1 h at 37 °C
# Experimental: Haemolysis assay: Human whole blood (Australian Red Cross Blood Service) was washed three times with three volumes of 0.9 % NaCl and resuspended in a concentration of 0.5×10^8 cells mL^−1, determined by manual cell count in a Neubauer haemocytometer. Washed cells were added to compound containing plates (384‐well round bottom polypropylene plates, Corning 3657) for a final volume of 50 μL, shaken for 10 min and incubated for 1 h at 37 °C, without shaking. After incubation, the plates were centrifuged at 1000 g for 10 min to pellet cells and debris, 25 μL of the supernatant was then transferred to reading plates (384‐well flat bottom polystyrene plates, Corning CLS3680), with haemolysis determined by measuring the supernatant absorbance at […] (OD405), using cells without inhibitors as negative control and cells with 1 % Triton X‐100 (Sigma T8787) as positive control. HC10 and HC50 (concentration at which 10 and 50 % haemolysis is induced, respectively) were calculated by curve fitting the inhibition values vs. log(concentration) of four replicates using a sigmoidal dose–response function with variable fitting values for top, bottom and slope using Prism 8. Melittin (Sigma M2272) was used as positive haemolytic control on each plate. Human ethics approval from the University of Queensland Institutional Human Research Ethics Committee was obtained for use of human blood for haemolysis studies (approval number 201400003).
# [2] = tested on: Acinetobacter baumannii ATCC 19606; assay: CO-ADD bacterial broth microdilution MIC assay; type: cell-based; conditions: CAMHB, 37 °C, 18 h, ≥ 80% inhibition
# Experimental: (§5) CO-ADD High Throughput Screening
# (§6) Bacterial broth microdilution minimum inhibitory concentration (MIC) assay Bacterial strains were cultured in Cation-adjusted Mueller Hinton broth (CAMHB; Bacto Laboratories 212322) at 37 °C overnight. A sample of each culture was then diluted 40-fold in fresh CAMHB and incubated at 37 °C for 1.5-3 h. The resultant mid-log phase cultures were diluted with CAMHB (CFU/mL measured by OD600), then added to each well of the compound-containing plates (384-well non-binding surface (NBS) plates; Corning CLS3640), giving a cell density of 5 × 10^5 CFU/mL and a total volume of 50 µL. Plates were covered and incubated at 37 °C for 18 h without shaking. Inhibition of bacterial growth was determined measuring absorbance at 600 nm (OD600), using media only as negative control and bacteria without inhibitors as positive control. MIC values were determined as the lowest concentration at which the growth was inhibited at ≥ 80%. Colistin sulfate (Sigma C4461) and vancomycin HCl (Sigma 861987) were used as positive inhibitor controls on each plate for Gram-negative and Gram-positive bacteria, respectively.
# (§7) Figure S1. 1H NMR (400 MHz) of [Co(ATS)(DMAP)2]NO3 (3) in DMSO-d6.
# (§8) (1 picture or pasted object on this page, not shown here)
# [3] = tested on: Pseudomonas aeruginosa ATCC 27853; assay: CO-ADD bacterial broth microdilution MIC assay; type: cell-based; conditions: CAMHB, 37 °C, 18 h, ≥ 80% inhibition
# Experimental: as §5, §6, §7, §8
# C. tropicalis ATCC 750 = assay: Antifungal MIC assay (broth microdilution in YNB); type: cell-based, Candida tropicalis
# From the text: as §1, §2, §3, §4
# C. glabrata ATCC 90030 = assay: Antifungal MIC assay (broth microdilution in YNB); type: cell-based, Candida glabrata
# From the text: as §1, §2, §3, §4
# C. albicans ATCC 90028 = assay: Antifungal MIC assay (broth microdilution in YNB); type: cell-based, Candida albicans
# From the text: as §1, §2, §3, §4
# C. auris CBS 12373 = assay: Antifungal MIC assay (broth microdilution in YNB); type: cell-based, Candida auris
# From the text: as §1, §2, §3, §4
# C. auris CBS 10913 = assay: Antifungal MIC assay (broth microdilution in YNB); type: cell-based, Candida auris
# From the text: as §1, §2, §3, §4
# [4] = tested on: Klebsiella pneumoniae ATCC 700603 (K6; ESBL SHV-18); type: cell-based; conditions: 18 h
# Experimental: as §5, §6, §7, §8
# [5] = range of MICs, n=8, 35 °C, 36 h, visual, read-out: MIC C. neoformans ATCC 208821
# [6] = range of MICs, n=8, 35 °C, 36 h, visual, read-out: MIC C. tropicalis ATCC 750
# [7] = range of MICs, n=8, 35 °C, 36 h, visual, read-out: MIC C. glabrata ATCC 90030
# [8] = range of MICs, n=8, 35 °C, 36 h, visual
# [9] = range of MICs, n=8, 35 °C, 36 h, visual, read-out: MIC C. auris CBS 12373
Compound,Haem HC10 (concentration at which 10 % haemolysis is reached) (human red blood cells) [µM],MIC Kp (Klebsiella pneumoniae ATCC 700603) [4] [µg/mL],MIC Cryptococcus neoformans ATCC 208821 ([1]; Table S1) [µg/mL],"MIC [1, 5] [µM]",MIC Ab (Acinetobacter baumannii ATCC 19606) [2] [µg/mL],MIC Pa (Pseudomonas aeruginosa ATCC 27853) [3] [µg/mL],MIC Candida tropicalis ATCC 750 (C. tropicalis ATCC 750; Table S1) [µg/mL],MIC (C. tropicalis ATCC 750; [6]) [µM],MIC Candida glabrata ATCC 90030 (C. glabrata ATCC 90030; Table S1) [µg/mL],MIC (C. glabrata ATCC 90030; [7]) [µM],MIC Candida albicans ATCC 90028 (C. albicans ATCC 90028; Table S1) [µg/mL],MIC Candida auris CBS 12373 (C. auris CBS 12373; Table S1) [µg/mL],MIC (C. auris CBS 12373; [9]) [µM],MIC Candida auris CBS 10913 (C. auris CBS 10913; Table S1) [µg/mL],other results
CC(=N\NC(N)=S)/C(C)=N/NC(N)=S [Compound L1],>100,> 32,–,–,–,–,–,–,–,–,–,–,–,–,"MIC ([1]; Cryptococcus neoformans, ATCC208821, Table S1, read-out: MIC Cryptococcus neoformans ATCC 208821): > 23.2 µg/mL; MIC ([1]; Cryptococcus neoformans, ATCC208821, range of MICs, n=8, 35 °C, 36 h, visual, read-out: MIC C. neoformans ATCC 208821): > 100 µM; MIC ([2]; Acinetobacter baumannii, ATCC19606, read-out: MIC Ab (Acinetobacter baumannii ATCC 19606)): > 32 µg/mL; MIC ([3]; Pseudomonas aeruginosa, ATCC27853, read-out: MIC Pa (Pseudomonas aeruginosa ATCC 27853)): > 32 µg/mL; MIC (C. tropicalis ATCC 750; Candida tropicalis, ATCC750, Table S1, read-out: MIC Candida tropicalis ATCC 750): > 23.2 µg/mL; MIC (C. tropicalis ATCC 750; Candida tropicalis, ATCC750, range of MICs, n=8, 35 °C, 36 h, visual, read-out: MIC C. tropicalis ATCC 750): > 100 µM; MIC (C. glabrata ATCC 90030; Nakaseomyces glabratus, ATCC90030, Table S1, read-out: MIC Candida glabrata ATCC 90030): > 23.2 µg/mL; MIC (C. glabrata ATCC 90030; Nakaseomyces glabratus, ATCC90030, range of MICs, n=8, 35 °C, 36 h, visual, read-out: MIC C. glabrata ATCC 90030): > 100 µM; MIC (C. albicans ATCC 90028; Candida albicans, ATCC90028, Table S1, read-out: MIC Candida albicans ATCC 90028): > 23.2 µg/mL; MIC (C. albicans ATCC 90028; Candida albicans, ATCC90028, range of MICs, n=8, 35 °C, 36 h, visual, read-out: MIC C. albicans ATCC 90028): > 100 µM; MIC (C. auris CBS 12373; Candidozyma auris, CBS12373, Table S1, read-out: MIC Candida auris CBS 12373): > 23.2 µg/mL; MIC (C. auris CBS 12373; Candidozyma auris, CBS12373, range of MICs, n=8, 35 °C, 36 h, visual, read-out: MIC C. auris CBS 12373): > 100 µM; MIC (C. auris CBS 10913; Candidozyma auris, CBS10913, Table S1, read-out: MIC Candida auris CBS 10913): > 23.2 µg/mL; MIC (C. auris CBS 10913; Candidozyma auris, CBS10913, range of MICs, n=8, 35 °C, 36 h, visual, read-out: MIC C. auris CBS 10913): > 100 µM"
"O=[N+]([O-])[O-].[NH3+][Co-3]123([NH3+])[O]c4c(F)cccc4C=[N+]1c1ccccc1[N+]2=Cc1cccc(F)c1[O]3 [Compound 7, [Co(3F‐salophen)(NH3)2]NO3]",>100,> 32,47.8,100,> 32,> 32,47.8,100,47.8,100,23.9 to 47.8,23.9,50,0.37 to 0.75,"MIC C. albicans ATCC 90028 (C. albicans ATCC 90028; [8]): 50 to 100 µM; MIC C. auris CBS 10913, lowest value ('as low as') (C. auris CBS 10913; lower end of MIC range): 0.78 µM; MIC C. auris CBS 10913 (C. auris CBS 10913; [8]): 0.78 to 1.56 µM"
"O=[N+]([O-])[O-].O=[N+]([O-])[O-].[Co+2] [Co, Co(NO3)2, reference compound]",>100,–,> 29.1,>100,> 32,> 32,> 29.1,>100,> 29.1,>100,> 29.1,29.1,100,> 29.1,"MIC (C. albicans ATCC 90028; range of MICs, n=8, 35 °C, 36 h, visual, read-out: MIC C. albicans ATCC 90028): >100 µM; MIC (C. auris CBS 10913; range of MICs, n=8, 35 °C, 36 h, visual, read-out: MIC C. auris CBS 10913): >100 µM; MIC Kp (Klebsiella pneumoniae ATCC 700603) ([4]; CAMHB, 37 °C, ≥ 80% inhibition): > 32 µg/mL"
